Reference: US8063214B2, “Polymorphic forms of tadalafil” (Dr. Reddy's Laboratories Limited, priority 2004, dated 2011)

Tests used:
Type in all cases: physicochemical
[1] = Particle size distribution by MASTERSIZER 2000 laser light scattering
Description: The particle size distribution plots of the drawings were obtained using a MASTERSIZER™ 2000 laser light scattering instrument sold by Malvern Instruments Ltd. of Malvern, Worcestershire, United Kingdom. In the plots, values in the vertical axis represent a volume percentage of particles and the horizontal axis is a logarithmic scale of particle sizes, in μm units.

[2] = Bulk density and tapped bulk density, Test Method 616 of United States Pharmacopeia 24; settings: for tapped bulk density: after tapping
[3] = Storage of polymorphic forms under ambient conditions, form checked by XRPD; settings: for polymorphic form after storage (XRPD pattern): ambient conditions; for polymorphic form stability upon storage: storage at ambient temperatures
Description: The various forms of tadalafil are characterized by their XRPD patterns, which differ between polymorpic forms. All XRPD results reported herein were obtained using Cu Kα radiation, having the wavelength 1.541 Å. The XRPD patterns of the figures have a vertical axis that is intensity units, and a horizontal axis that is degrees 2θ.

Compound: CN1CC(=O)N2[C@H](c3ccc4c(c3)OCO4)c3[nH]c4ccccc4c3C[C@@H]2C1=O [Example 15, tadalafil]
- diameters of 10 volume percent of the particles [1]: less than 58 μm
- diameters of 50 volume percent of the particles [1]: less than 193 μm
- diameters of 90 volume percent of the particles [1]: less than 428 μm
- bulk density [2]: 0.435 g/mL
- tapped bulk density [2]: 0.626 g/mL

Compound: CN1CC(=O)N2[C@H](c3ccc4c(c3)OCO4)c3[nH]c4ccccc4c3C[C@@H]2C1=O [Example 21, tadalafil]
- polymorphic form after storage (XRPD pattern) ([3]; sealed polyethylene bag, 3 to 4 days): conversion of the tadalafil Form B into Form A
- polymorphic form stability upon storage ([3]; listed as mixtures of Form A and Form B): will convert to only Form A

Compound: CN1CC(=O)N2[C@H](c3ccc4c(c3)OCO4)c3[nH]c4ccccc4c3C[C@@H]2C1=O [Example 11, tadalafil]
- diameters of 10 volume percent of the particles [1]: less than 9.9 μm
- diameters of 50 volume percent of the particles [1]: less than 40 μm
- diameters of 90 volume percent of the particles [1]: less than 148 μm
- bulk density [2]: 0.181 g/mL
- tapped bulk density [2]: 0.434 g/mL

Compound: CN1CC(=O)N2[C@H](c3ccc4c(c3)OCO4)c3[nH]c4ccccc4c3C[C@@H]2C1=O [Tadalafil Form B, tadalafil]
- polymorphic form after storage (XRPD pattern) ([3]; sealed in a polyethylene bag, 40 hours): conversion of the tadalafil Form B into Form A
- polymorphic form stability upon storage [3]: spontaneously converts to Form A

Compound: CN1CC(=O)N2[C@H](c3ccc4c(c3)OCO4)c3[nH]c4ccccc4c3C[C@@H]2C1=O [Example 1, tadalafil]
- diameters of 10 volume percent of the particles [1]: less than 31 μm
- diameters of 50 volume percent of the particles [1]: less than 104 μm
- diameters of 90 volume percent of the particles [1]: less than 321 μm
- bulk density [2]: 0.344 g/mL
- tapped bulk density [2]: 0.666 g/mL
